# Measurements published in US20210047278A1, “E3 UBIQUITIN LIGASE AGONISTS, PHARMACEUTICAL COMPOSITIONS INCLUDING THE E3 UBIQUITIN LIGASE AGONISTS, RELATED METHODS OF USE” (FRED HUTCHINSON CANCER RESEARCH CENTER, priority 2018, published 2021).
# Where two headings read alike, the source gives them in different places.
# Key:
# Assay type in all cases: binding
# FBW7^ARG+pCycE = target: T1, FBW7^ARG+pCycE (Homo sapiens, UniProt Q969H0, R505L); assay: FBW7^ARG-cyclin E agonist ALPHAscreen (primary PRUN, confirmation CRUN1, dose-response DRUN); details: for EC50 / Emax: DRUN dose-response; for Emax: relative to WT-FBW7+pCycE, read-out: FBW7 ACT Averaged Max % Response
# T1 construct: GST (TEV site and flexible linker) (N, cleaved yes); made in house; host or cells: SF9 insect cells (baculovirus)
# Excerpt: FBW7^ARG refers to a class of loss-of-function mutations of the of FBW7 ubiquitin ligase that target a key phosphate-binding arginine residue in the FBW7 substrate-binding domain. These mutations are commonly found in human cancers and promote tumorigenesis by impairing the interactions between FBW7 and its substrates, such as cyclin E and Myc. Described herein is a high throughput screen (HTS) to identify agonists, such as small molecules, that augment FBW7^ARG-substrate binding. In an embodiment, the HTS is based on the Amplified Luminescent Proximity Homogenous Assay (ALPHAscreen) because it detects protein-protein interactions with a large dynamic range. ALPHAscreen is a bead-based proximity assay wherein donor beads contain a photosensitizer, phthalocyanine, and acceptor beads contain thioxene, anthracene and rubrenein in sufficient quantities to generate a chemiluminescence/fluorescence reaction (FIG. 4A). Upon excitation with excitation illumination, such as light having a wavelength of 680 nm, of the donor beads, phthalocyanine converts ambient oxygen to singlet oxygen, which can diffuse approximately 200 nm within its 4-microsecond half-life. If an acceptor bead is in close proximity to an excited donor bead, singlet oxygen transfers its energy to the acceptor, resulting in emitted light at a broad bandwidth of −520-620 nm. The HTS-compatible FBW7/cyclin E ALPHAscreen assay described herein uses streptavidin coupled donor beads and Ni-chelate acceptor beads. In this assay, biotinylated cyclin E phosphopeptide and the His-tagged FBW7 mutant protein have high affinity for the donor and acceptor beads, respectively (FIG. 4B). A small molecule that is able to bridge the binding sites of the peptide and the mutant protein (or induce a conformational change that increases affinity of the protein for the peptide) will bring the donor and acceptor beads in close proximity to each other, resulting in an ALPHA signal. As designed, this assay format is a very sensitive, non-radioactive, homogenous “mix-and-read” format that is HT compatible in 384 and 1536 well formats.
# In the 384-well screening assay, 10 uL of acceptor beads with 25 nM of the FBW7^ARG (RLFBW7) are dispensed to test wells; acceptor beads with 25 nM of the wt-FBW7 protein (WTFBW7) are dispensed to control wells. Test compounds are then added by pintool transfer and the mixture is incubated for 30 minutes. An additional 10 uL of donor beads with 25 nM cyclin E phosphopeptide is then added to all wells and the plate is incubated for 4 hours before the ALPHA signal is measured.
# In preparation for large-scale screening, the assay was miniaturized to a 1536-well format. The miniaturized screen performed outstandingly in all respects. The screen was enhanced with respect to several parameters and assayed its performance using mutant FBW7 and wt-FBW7, as well as non-specific assay agonists. […] For example, the following Z′-scores/FBW7 concentrations were obtained: 6.25 nM/Z′=0.62, 12.5 nm/Z′=0.85, 25.0 nM/Z′=0.84.
# 1. Add 2.5 uL of RLFBW7/cycE˜P/Ni beads: Final [25 nM/25 nM/10 ug/ml].
# 2. Add 2.5 uL of WTFBW7/cycE˜P/Ni beads: Final [25 nM/25 nM/10 ug/ml].
# 4. Add 2.5 uL of SA beads to all wells Final [10 ug/ml],
# 5. Add 30 nL of compounds,
# 6. Read ALPHAscreen on Envision
# The large-scale FBW7 agonist ALPHAscreen was completed using FBW7^ARG and a phosphorylated cyclin E (pCycE) degron peptide. Wt-FBW7+pCycE-peptide was the “high control”, and Wt-FBW7+unphosph. CycE peptide was the “low control”. The screen was performed on the 645,000-compound Scripps Diversity Library using 1536-well format and drug concentrations of 26.1 μM. An algorithm aided hit identification based on the average percent activation for all compounds and their standard deviation.
# A confirmation assay of all 853 compounds in triplicate using a single concentration (26.1 μM). […]
# FBW7^ARG (RLFBW7) alone = target: T2, FBW7^ARG (RLFBW7) alone (Homo sapiens, UniProt Q969H0, R505L); assay: Counterscreen 1 ALPHAscreen with FBW7^ARG alone (CSRUN1/DCSRUN1); details: dose-response counterscreen; for Emax: read-out: RLFBW7 ACT DCSRUN1 Averaged Max % Response
# T2 construct: GST (TEV site and flexible linker) (N, cleaved yes); made in house; host or cells: SF9 insect cells (baculovirus)
# Description: (§1) Studies in 384-well format were performed using the ENVISION system. Reagent concentrations (see FIG. 6A), order of addition, pH (see FIG. 6B), and reducing agent were altered with the goal of enhancing the dynamic range between wt-FBW7 (the positive control) and FBW7^ARG (FIG. 6 and not shown). Wt-FBW7 produced a signal 100× greater with phosphorylated cyclin E degron peptide compared with unphosphorylated, which represents the assay's maximum range (FIG. 6C). […] This assay thus detects the residual affinity of the FBW7^ARG-substrate interaction, which, as predicted, is stronger than wt-FBW7 protein with unphosphorylated cyclin E peptide. Concurrent with this primary assay, counter ALPHAscreens were developed which omitted either FBW7 or peptide (to eliminate hits that are general ALPHAscreen agonists), or used an irrelevant phosphopeptide (to eliminate compounds that simply augment binding to phosphopeptides). […]
# (§2) The 77 hits were subjected to a dose-response assay in which each compound was tested in triplicate in a 10 point 3-fold dilutional series, to a maximum concentration of approximately 87 μM. Three screens were performed, using FBW7^ARG+pCycE (DRUN), FBW7^ARG (DCSRUN1), or pCycE alone (DCSRUN2). See TABLES 2, 3, and 4, respectively, and FIG. 10A. All of the assays performed extremely well, and threshold of 10% activation (relative to WT-FBW7+pCycE) was set as positive. […] Many hits fell into shared structure cluster ID groups, reinforcing the idea that they function as specific agonists (see below and TABLE 5).
# pCycE alone = assay: Counterscreen 2 ALPHAscreen with cyclin E phosphopeptide alone (CSRUN2/DCSRUN2); details: for CyCEP ACT DCSRUN2 Averaged Max % Response: activation relative to WT-FBW7+pCycE, averaged maximum; for EC50: dose-response, triplicate, 10 point 3-fold dilutional series, read-out: CyCEP ACT DCSRUN2 Final EC50
# Description: as §1, §2
# [1] = raw curve fit, read-out: FBW7 ACT EC50 Curve Fit Raw, Molar
# [2] = triplicate, 10 point 3-fold dilution, max approx. 87 μM, read-out: FBW7 ACT Final EC50, Molar
# [3] = confirmation assay, triplicate, single concentration 26.1 μM, read-out: FBW7 ACT CRUN1 Avg % Response and Stdev
# [4] = primary screen, 1536-well, 26.1 μM, FBW7^ARG + pCycE degron peptide, high control wt-FBW7+pCycE, read-out: FBW7 ACT PRUN % Response
# [5] = raw curve fit, read-out: RLFBW7 ACT DCSRUN1 EC50 Curve Fit Raw
# [6] = read-out: RLFBW7 ACT DCSRUN1 Final EC50
# T2 sequence (Q969H0 64-707 R505L): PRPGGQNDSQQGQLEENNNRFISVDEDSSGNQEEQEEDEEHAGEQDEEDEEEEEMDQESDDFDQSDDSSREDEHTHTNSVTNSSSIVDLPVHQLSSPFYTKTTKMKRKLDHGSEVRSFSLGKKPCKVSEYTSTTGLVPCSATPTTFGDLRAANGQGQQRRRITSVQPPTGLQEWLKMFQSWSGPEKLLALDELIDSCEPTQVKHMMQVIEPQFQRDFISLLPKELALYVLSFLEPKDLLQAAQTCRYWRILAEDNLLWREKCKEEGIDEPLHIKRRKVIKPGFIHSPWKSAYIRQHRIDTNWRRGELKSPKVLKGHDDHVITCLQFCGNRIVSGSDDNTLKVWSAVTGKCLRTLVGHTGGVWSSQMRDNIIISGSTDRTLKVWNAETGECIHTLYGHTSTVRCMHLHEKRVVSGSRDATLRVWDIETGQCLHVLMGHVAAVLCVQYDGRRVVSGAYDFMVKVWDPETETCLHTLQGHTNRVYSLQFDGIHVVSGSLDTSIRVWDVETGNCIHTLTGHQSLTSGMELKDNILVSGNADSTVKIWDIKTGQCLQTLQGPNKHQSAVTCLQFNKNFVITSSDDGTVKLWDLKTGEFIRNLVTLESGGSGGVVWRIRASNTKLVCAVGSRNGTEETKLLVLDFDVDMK
# T2 sequence (P63208 2-163 partner): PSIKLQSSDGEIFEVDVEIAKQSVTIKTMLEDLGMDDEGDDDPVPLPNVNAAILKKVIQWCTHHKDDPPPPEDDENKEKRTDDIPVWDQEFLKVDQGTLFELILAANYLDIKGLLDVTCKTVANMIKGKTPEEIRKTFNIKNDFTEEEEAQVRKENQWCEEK
# T1 sequence (Q969H0 64-707 R505L): as the sequence (Q969H0 64-707 R505L) above
# T1 sequence (P63208 2-163 partner): as the sequence (P63208 2-163 partner) above
SMILES,EC50 (FBW7^ARG+pCycE; [1]),Emax (FBW7^ARG+pCycE),EC50 (FBW7^ARG+pCycE; [2]),activation at 26.1 µM (FBW7^ARG+pCycE; [3]),activation at 26.1 µM (FBW7^ARG+pCycE; [4]),EC50 (FBW7^ARG (RLFBW7) alone; [5]),Emax (FBW7^ARG (RLFBW7) alone),EC50 (FBW7^ARG (RLFBW7) alone; [6]),CyCEP ACT DCSRUN2 Averaged Max % Response (pCycE alone),EC50 (pCycE alone)
CC(=O)NCC(c1cccs1)S(=O)(=O)c1ccc(C)cc1 (centres unmarked) [SR-01000023077-1],15.3 µM,18.4%,> 64.6 µM,2.46 ± 0.31%,1.85%,33.3 µM,0.39%,> 64.6 µM,0.18%,> 64.6 µM
Cc1cc(OCC(=O)Nc2ccc3oc(-c4ccccc4Br)nc3c2)cc(C)c1Cl [SR-01000421466-1],0.0412 µM,8.15%,> 43.2 µM,3.2 ± 0.75%,2.01%,–,0.32%,> 43.2 µM,0.02%,> 43.2 µM
Cc1ccc2nc(SCC(=O)Nc3ncc(C)s3)c(C#N)cc2c1 [SR-01000340506-1],14.9 µM,10.7%,> 65.3 µM,3.87 ± 0.19%,3.77%,16.2 µM,35.6%,> 65.3 µM,0.24%,> 65.3 µM
CC1=C(C(=O)OC(C)C)C(c2ccncc2)C2=C(CC(c3ccccc3)CC2=O)N1 (centres unmarked) [SR-01000217822-2],23 µM,7.67%,> 60.9 µM,6.36 ± 0.25%,2.06%,25.2 µM,0.88%,> 60.9 µM,0.03%,> 60.9 µM
O=C(Cc1ccc(Br)cc1)N1CCC(c2nc(O)c3cnccc3n2)C1.O=C(O)C(F)(F)F (centres unmarked) [SR-00000005455-1],30.2 µM,24.7%,> 65.3 µM,4.65 ± 0.38%,2.32%,0.0129 µM,0.43%,> 65.3 µM,0.31%,> 65.3 µM
CCOC(=O)c1sc2ncn(CC(=O)NCCC3=CCCCC3)c(=O)c2c1C [SR-01000119175-1],–,10.3%,–,2.53 ± 0.13%,2.18%,–,0.7%,–,0.13%,> 65.3 µM

# Further lines, with some results ahead:
EC50 (FBW7^ARG+pCycE; [1]),Emax (FBW7^ARG+pCycE),EC50 (FBW7^ARG+pCycE; [2]),activation at 26.1 µM (FBW7^ARG+pCycE; [3]),activation at 26.1 µM (FBW7^ARG+pCycE; [4]),EC50 (FBW7^ARG (RLFBW7) alone; [5]),Emax (FBW7^ARG (RLFBW7) alone),EC50 (FBW7^ARG (RLFBW7) alone; [6]),SMILES,CyCEP ACT DCSRUN2 Averaged Max % Response (pCycE alone),EC50 (pCycE alone)
0.0054 µM,8.52%,> 43.6 µM,3.84 ± 1.06%,1.93%,0.0052 µM,1.87%,> 43.6 µM,CCOc1ccc(Br)cc1C1C2=C(CCCC2=O)N(CC(=O)O)C2=C1C(=O)CCC2 [SR-01000476712-1],2.30%,> 43.6 µM
14.3 µM,9.7%,> 42.9 µM,6.29 ± 0.67%,2.42%,14.5 µM,1.86%,> 42.9 µM,COc1ccc(C2CC(=O)C3=C(C2)NC(C)=C(C(=O)OC(C)C)C3c2ccccc2OC(C)C)cc1 (centres unmarked) [SR-01000422384-1],0.09%,> 42.9 µM
23.8 µM,8.75%,> 62.2 µM,5.27 ± 1.17%,2.58%,0.0056 µM,1.53%,> 62.2 µM,COc1ccc(COC(=O)C2=C(C)NC3=C(C(=O)CC(C)(C)C3)C2c2ccccc2)cc1 (centres unmarked) [SR-01000427708-1],1.77%,> 62.2 µM
31.9 µM,17.5%,> 65.3 µM,2.33 ± 0.59%,2.62%,24.5 µM,0.2%,> 65.3 µM,O=C(Nc1ccc2c(c1)OCO2)N1CCC(c2nnc(C3CC3)s2)CC1 [SR-01000922885-1],0.08%,> 65.3 µM
